Read-outs that look alike come from different tables or passages of the source.
Key:
[1] = tested on: 60 cancer cell lines (NCI 60 cancer cell line series); conditions: cited from earlier work
[2] = tested on: 60 cancer cell lines (NCI 60 cancer cell line series); test: NCI-DTP in vitro cancer screen, sulforhodamine B (SRB) growth inhibition, 48 hour exposure; format: cell-based, human; parameters: key to sensitivity class Ovarian OVCAR-8 CL6005 / sensitivity class Ovarian SK-OV-3 CL6011 / sensitivity class Prostate DU-145 CL11003 / sensitivity class NSCLC NCI-H522 CL1003 / sensitivity class Ovarian IGROV1 CL6010 / sensitivity class Ovarian OVCAR-4 CL6002 / sensitivity class Prostate PC-3(I) CL11001 / sensitivity class Renal A498 CL9013 / sensitivity class Renal SN12C CL9008: sensitivity class: 1 = Low, 2 = Medium, 3 = High
Method in brief: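 Values come from the NCI-DTP screen database: -log GI50, the concentration giving 50% growth inhibition, derived from SRB cell-mass dose-response curves. Each line seeded at its own density, treated day 1 at five ten-fold-spaced doses in duplicate wells, stained after 48 h.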

## O=c1[nH]cc(F)c(=O)[nH]1 [5-Fluorouracil]
[1]; Breast BT-549 (CL5013)
  -Log (GI50): 4.0
[1]; Breast HS-578T CL5006
  -Log (GI50): 3.7
[1]; Breast MCF7(I) (CL5001)
  -Log (GI50): 5.7
[1]; Breast MCF7/ADRr (CL5002)
  -Log (GI50): 4.4
[1]; Breast MDA-MB-231 CL5005
  -Log (GI50): 3.4
[1]; Breast MDA-MB-435 (CL5011)
  -Log (GI50): 4.9
[1]; Breast MDA-N CL5012
  -Log (GI50): 5.0
[1]; Breast T-47D (CL5014)
  -Log (GI50): 4.2
[1]; CNS SF-268 CL12014
  -Log (GI50): 4.3
[1]; CNS SF-295 CL12015
  -Log (GI50): 4.3
[1]; CNS SF-539 CL12016
  -Log (GI50): 6.1
[1]; CNS SNB-19 (CL12002)
  -Log (GI50): 3.9
[1]; CNS SNB-75(I) CL12005
  -Log (GI50): 3.8
[1]; CNS U251(I) CL12009
  -Log (GI50): 4.3
[1]; Colon COLO-250 CL4010
  -Log (GI50): 5.2
[1]; Colon HCC-2998 (CL4002)
  -Log (GI50): 5.9
[1]; Colon HCT-15 CL4015
  -Log (GI50): 5.2
[1]; Colon HCT-116 (CL4003)
  -Log (GI50): 5.4
[1]; Colon HT29(I) CL4001
  -Log (GI50): 5.2
[1]; Colon KM12 (CL4017)
  -Log (GI50): 4.9
[1]; Colon SW-620 (CL4009)
  -Log (GI50): 4.6
[1]; Leukemia CCRF-CEM(I) (CL7003)
  -Log (GI50): 4.5
[1]; Leukemia HL-60(I) (CL7008)
  -Log (GI50): 4.9
[1]; Leukemia K562(I) CL7005
  -Log (GI50): 4.8
[1]; Leukemia MOLT-4 (CL7006)
  -Log (GI50): 4.9
[1]; Leukemia RPMI-8226(I) (CL7010)
  -Log (GI50): 5.3
[1]; Leukemia SR CL7019
  -Log (GI50): 5.2
[1]; Melanoma LOX IMVI CL10001
  -Log (GI50): 5.2
[1]; Melanoma M14 (CL10014)
  -Log (GI50): 4.3
[1]; Melanoma MALME-3M CL10002
  -Log (GI50): 4.6
[1]; NCSLC NCI-H522 CL1003
  -Log (GI50): 4.4
[1]; NSCLC NCI-H23(I) CL1001
  -Log (GI50): 5.0
[1]; NSCLC NCI-H332M CL1017
  -Log (GI50): 4.4
[1]; NSCLC NCI-H460 CL1021
  -Log (GI50): 5.9
[1]; Ovarian IGROV1 CL6010
  -Log (GI50): 4.8
[1]; Ovarian OVCAR-3 CL6001
  -Log (GI50): 4.4
[1]; Ovarian OVCAR-4 CL6002
  -Log (GI50): 4.1
[1]; Ovarian OVCAR-5 CL6003
  -Log (GI50): 3.8
[1]; Ovarian OVCAR-8 CL6005
  -Log (GI50): 4.8
[1]; Ovarian SK-OV-3 CL6011
  -Log (GI50): 3.8
[1]; Prostate DU-145 CL11003
  -Log (GI50): 5.1
[1]; Prostate PC-3(I) CL11001
  -Log (GI50): 4.3
[1]; Renal 786-O CL9018
  -Log (GI50): 4.9
[1]; Renal A498 CL9013
  -Log (GI50): 5.0
[1]; Renal ACHN CL9023
  -Log (GI50): 5.0
[1]; Renal CAKI-1 CL9015
  -Log (GI50): 5.3
[1]; Renal RXF-393 CL9016
  -Log (GI50): 4.2
[1]; Renal SN12C CL9008
  -Log (GI50): 4.5
[1]; Renal TK10 CL9024
  -Log (GI50): 3.6
[1]; Renal UO-31 CL9004
  -Log (GI50): 5.2
[2]; Breast BT-549 (CL5013)
  classification of cell line as Low(1), Medium(2) or High(3) sensitivity to compound: 1
[2]; Breast HS-578T CL5006
  classification of cell line as Low(1), Medium(2) or High(3) sensitivity to compound: 1
[2]; Breast MCF7(I) (CL5001)
  classification of cell line as Low(1), Medium(2) or High(3) sensitivity to compound: 3
[2]; Breast MCF7/ADRr (CL5002)
  classification of cell line as Low(1), Medium(2) or High(3) sensitivity to compound: 2
[2]; Breast MDA-MB-231 CL5005
  classification of cell line as Low(1), Medium(2) or High(3) sensitivity to compound: 1
[2]; Breast MDA-MB-435 (CL5011)
  classification of cell line as Low(1), Medium(2) or High(3) sensitivity to compound: 2
[2]; Breast MDA-N CL5012
  classification of cell line as Low(1), Medium(2) or High(3) sensitivity to compound: 2
[2]; Breast T-47D (CL5014)
  classification of cell line as Low(1), Medium(2) or High(3) sensitivity to compound: 2
[2]; CNS SF-268 CL12014
  classification of cell line as Low(1), Medium(2) or High(3) sensitivity to compound: 2
[2]; CNS SF-295 CL12015
  classification of cell line as Low(1), Medium(2) or High(3) sensitivity to compound: 2
[2]; CNS SF-539 CL12016
  classification of cell line as Low(1), Medium(2) or High(3) sensitivity to compound: 3
[2]; CNS SNB-19 (CL12002)
  classification of cell line as Low(1), Medium(2) or High(3) sensitivity to compound: 1
[2]; CNS SNB-75(I) CL12005
  classification of cell line as Low(1), Medium(2) or High(3) sensitivity to compound: 1
[2]; CNS U251(I) CL12009
  classification of cell line as Low(1), Medium(2) or High(3) sensitivity to compound: 2
[2]; Colon COLO-250 CL4010
  classification of cell line as Low(1), Medium(2) or High(3) sensitivity to compound: 2
[2]; Colon HCC-2998 (CL4002)
  classification of cell line as Low(1), Medium(2) or High(3) sensitivity to compound: 3
[2]; Colon HCT-15 CL4015
  classification of cell line as Low(1), Medium(2) or High(3) sensitivity to compound: 2
[2]; Colon HCT-116 (CL4003)
  classification of cell line as Low(1), Medium(2) or High(3) sensitivity to compound: 3
[2]; Colon HT29(I) CL4001
  classification of cell line as Low(1), Medium(2) or High(3) sensitivity to compound: 2
[2]; Colon KM12 (CL4017)
  classification of cell line as Low(1), Medium(2) or High(3) sensitivity to compound: 2
[2]; Colon SW-620 (CL4009)
  classification of cell line as Low(1), Medium(2) or High(3) sensitivity to compound: 2
[2]; Leukemia CCRF-CEM(I) (CL7003)
  classification of cell line as Low(1), Medium(2) or High(3) sensitivity to compound: 2
[2]; Leukemia HL-60(I) (CL7008)
  classification of cell line as Low(1), Medium(2) or High(3) sensitivity to compound: 2
[2]; Leukemia K562(I) CL7005
  classification of cell line as Low(1), Medium(2) or High(3) sensitivity to compound: 2
[2]; Leukemia MOLT-4 (CL7006)
  classification of cell line as Low(1), Medium(2) or High(3) sensitivity to compound: 2
[2]; Leukemia RPMI-8226(I) (CL7010)
  classification of cell line as Low(1), Medium(2) or High(3) sensitivity to compound: 3
[2]; Leukemia SR CL7019
  classification of cell line as Low(1), Medium(2) or High(3) sensitivity to compound: 2
[2]; Melanoma LOX IMVI CL10001
  classification of cell line as Low(1), Medium(2) or High(3) sensitivity to compound: 2
[2]; Melanoma M14 (CL10014)
  classification of cell line as Low(1), Medium(2) or High(3) sensitivity to compound: 2
[2]; Melanoma MALME-3M CL10002
  classification of cell line as Low(1), Medium(2) or High(3) sensitivity to compound: 2
[2]; cell line NSCLC NCI-H23(I), CL1001
  sensitivity class NSCLC NCI-H23(I) CL1001: 2
[2]; cell line NSCLC NCI-H332M, CL1017
  sensitivity class NSCLC NCI-H332M CL1017: 2
[2]; cell line NSCLC NCI-H460, CL1021
  sensitivity class NSCLC NCI-H460 CL1021: 3
[2]; cell line NSCLC NCI-H522, CL1003
  sensitivity class NSCLC NCI-H522 CL1003: 2
[2]; cell line Ovarian IGROV1, CL6010
  sensitivity class Ovarian IGROV1 CL6010: 2
[2]; cell line Ovarian OVCAR-3, CL6001
  sensitivity class Ovarian OVCAR-3 CL6001: 2
[2]; cell line Ovarian OVCAR-4, CL6002
  sensitivity class Ovarian OVCAR-4 CL6002: 2
[2]; cell line Ovarian OVCAR-5, CL6003
  sensitivity class Ovarian OVCAR-5 CL6003: 1
[2]; cell line Ovarian OVCAR-8, CL6005
  sensitivity class Ovarian OVCAR-8 CL6005: 2
[2]; cell line Ovarian SK-OV-3, CL6011
  sensitivity class Ovarian SK-OV-3 CL6011: 1
[2]; cell line Prostate DU-145, CL11003
  sensitivity class Prostate DU-145 CL11003: 2
[2]; cell line Prostate PC-3(I), CL11001
  sensitivity class Prostate PC-3(I) CL11001: 2
[2]; cell line Renal 786-O, CL9018
  sensitivity class Renal 786-O CL9018: 2
[2]; cell line Renal A498, CL9013
  sensitivity class Renal A498 CL9013: 2
[2]; cell line Renal ACHN, CL9023
  sensitivity class Renal ACHN CL9023: 2
[2]; cell line Renal CAKI-1, CL9015
  sensitivity class Renal CAKI-1 CL9015: 3
[2]; cell line Renal RXF-393, CL9016
  sensitivity class Renal RXF-393 CL9016: 2
[2]; cell line Renal SN12C, CL9008
  sensitivity class Renal SN12C CL9008: 2
[2]; cell line Renal TK10, CL9024
  sensitivity class Renal TK10 CL9024: 1
[2]; cell line Renal UO-31, CL9004
  sensitivity class Renal UO-31 CL9004: 2

From US20020051978A1, “Methods and compositions for the identification, assessment, prevention and therapy of human cancers” (priority 2000, published 2002)
